The text below walks through data of US20160332972A1, “UREA HYDANTOIN DERIVATIVES AS FORMYL PEPTIDE MODULATORS” (ALLERGAN, INC., priority 2014, published 2016).

In this test the target is T1, FPR2 (Homo sapiens, UniProt P25090).
T1 construct: expressed in transfected cells
T1 sequence (P25090 1-351): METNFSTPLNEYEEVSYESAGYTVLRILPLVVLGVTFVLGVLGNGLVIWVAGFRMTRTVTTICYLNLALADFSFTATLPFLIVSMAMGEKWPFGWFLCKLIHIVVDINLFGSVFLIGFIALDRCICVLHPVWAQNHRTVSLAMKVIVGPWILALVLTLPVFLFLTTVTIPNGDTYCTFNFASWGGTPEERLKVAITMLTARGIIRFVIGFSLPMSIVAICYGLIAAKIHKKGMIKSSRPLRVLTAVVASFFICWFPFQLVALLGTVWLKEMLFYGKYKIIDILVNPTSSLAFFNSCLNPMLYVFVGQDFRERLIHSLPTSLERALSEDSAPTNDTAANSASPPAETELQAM
Briefly: FLIPR Tetra calcium activity assay in CHO-Gα16 cells stably expressing FPR2. The class given is cell-based. As to the method:
CHO-Gα16 cells stably expressing FPR2 were cultured in F12 media (10% FBS, 1% PSA, 400 μg/ml geneticin and 50 μg/ml hygromycin). In general, the day before the experiment, 18,000 cells/well were plated in a 384-well clear bottom poly-D-lysine coated plate. The following day the screening compound-induced calcium activity was assayed on a FLIPR^Tetra. The drug plates were prepared in 384-well microplates using EP3 and MultiPROBE robotic liquid handling systems. Compounds were tested at concentrations ranging from 0.61 to 10,000 nM. Results are expressed as EC50 (nM) and % efficacy values.

For `CCOC(=O)CCNCCC1(CC)NC(=O)N(NC(=O)Nc2ccc(Br)cc2)C1=O` (centres unmarked) [Compound 1, Ethyl 3-{[2-(1-{[(4-Bromophenyl)carbamoyl]amino}-4-ethyl-2,5-dioxoimidazolidin-4-yl)ethyl]amino}propanoate], the “FPR2 Gα16-CHO (% eff)” value (% efficacy, calcium activity) is given as “(0.97) %”. In addition, the EC50 (compound-induced calcium activity, tested at 0.61 to 10,000 nM) was 49 nM.
